# Data published in patent publication US20210338709A1, “USES OF MODIFIED RNA ENCODING RETINALDEHYDE DEHYDROGENASE” (priority 2018, published 2021).
# Experiments:
# [1] = system: mucosal memory responses; assay: Effect of ATRA on immune responses in skin-draining lymph nodes in vivo
# [2] = system: Salmonella; settings: ATRA during parenteral immunization, reference 12; cited from earlier work
compound,measurement,setting,value
"CC1=C(/C=C/C(C)=C/C=C/C(C)=C/C(=O)O)C(C)(C)CCC1 [ATRA, all-trans retinoic acid]",mucosal memory responses at mucosal surfaces,[1],"not only enhanced in the small intestine, but also at other mucosal surfaces"
same,protection against Salmonella infections,[2],convey protection against Salmonella infections
